Measured values reported in patent publication US10968190B2, “Processes for preparing oxathiazin-like compounds” (GEISTLICH PHARMA AG, priority 2014, dated 2021).
In brackets after ≈: the same amount, converted by molar mass. Read-outs that look alike come from different tables or passages of the source.

Legend:
[1] = test system: pancreatic primary tumors (Bo 73); assay: Xenograft model of pancreatic primary tumors Bo 73; format: in vivo; conditions: Bo 73, observed for 15 days; differences not statistically relevant
Excerpt: (§1) However, the differences in tumor volumes were not statistically relevant, likely due to the short duration of the study and the slow growth rate of the tumors.

[2] = test system: MRSA lines 188, 189, 193, 194 and 195; assay: Punch plate tests against MRSA; format: cell-based
MiaPaca2 tumor = assay: MiaPaca2 subcutaneous tumor model in nude mice; format: in vivo, nude mice (NMRI-Foxn1 nu/nu); conditions: 500 mg/kg i.p. on alternating days
Escherichia coli = assay: Antibacterial activity against Escherichia coli; format: cell-based
[3] = test system: human glioma cell line LN-229; assay: Cytotoxicity assay in LN-229 cells (crystal violet); format: cell-based; conditions: for OD (absorbance at 540 nm; high values = high cell viability): 24 h; for EC50: Homo sapiens, LN-229, 24 h
Description: Cell lines: The human glioma cell line LN-229 was used as described previously (Rodak et al. 2005) as well as the human colon adenocarcinoma cell line SW480.
Cytotoxicity assay: Dissociated LN-229 cells were seeded into 96-well plates at a density of 10^4 cells per well in 100 μl of culture medium. […] Triplicate cultures were prepared for each sample. After 24 h of incubation at […], the remaining adherent viable cells were stained using crystal violet as described (Rodack et al. 2005). Cell viability was determined by measuring the absorbancy at 540 nm. The results are expressed as killing rate given by the difference between 100% of cells and percentage of cells surviving. EC50 values correspond to the concentration inducing 50% cell death.

[4] = Water solubility and isotonicity; format: physicochemical
Excerpt: In certain embodiments, no PVP necessary to increase the solubility. For example, a 3.2% solution 2250 is isotonic. This is an unexpected advantage over taurolidine.

Staphylococcus aureus = assay: Antibacterial activity against Staphylococcus aureus; format: cell-based
[5] = Toxicity in mice during the tumor study; conditions: 500 mg/kg i.p. on alternating days
Description: 1×10^7 tumor cells (PancTu-I and MiaPaca 2) were injected subcutaneously into the flank.
Tumors were grown to a size of 200 mm^3 before the treatment was started. Mice were treated on alternating days with 500 mg/kg*body weight (BW).

[6] = test system: pancreatic primary tumors (Bo 70); assay: Xenograft model of pancreatic primary tumors Bo 70; format: in vivo; conditions: Bo 70, observed for 23 days
Excerpt: as §1

[7] = Half-life in human fresh blood in vitro by GC; format: in vitro ADME; conditions: 37° C.
[8] = test system: tumor cell lines AsPC-1, BxPC-3 and HCT-116; assay: Inhibition of cell viability in tumor cell lines; format: cell-based; conditions: read-out: Half-maximal inhibition of cell viability
Excerpt: These effects are similar to those observed in glioma cell line LN-229. The induction of cell death was due to apoptosis and necrosis (most likely necroptosis). […] Thus, there is a redox-directed mechanism of action.

[9] = test system: pancreas tumor cells (AsPC-1, BxPC-3 and HCT-116); assay: Growth inhibition of pancreas tumor cells; format: cell-based; conditions: read-out: half-maximal concentration of growth inhibition
Description: The growth of pancreas tumor cells (AsPC-1, BxPC-3 and HCT-116) was inhibited by compound 2250 with a half-maximal concentration of 300 μM, which is considerably lower than the concentration needed to elicit cytotoxicity.

[10] = test system: cancers identified herein; assay: Administration to patients having cancers (Example 5); format: in vivo; conditions: Example 5, present tense
Description: Each of these compounds is administered with Vitamin D3, a derivative, metabolite or analog thereof and the combination is found to increase the anti-tumor effects of the compounds.

[11] = test system: multicellular pancreatic tumor (Panc Tul or BxPC-3) spheroids; assay: Pancreatic stem cell-like multicellular spheroid toxicity assay; format: cell-based; conditions: taurolidine 500 μM, compound 2250 1000 μM, 48 hours
Excerpt: Multicellular spheroids are composed of tumor cells growing in a 3-dimensional structure stimulating the growth, micro-environmental conditions and stem cell-like characteristics of real tumors. The multicellular tumor spheroid (MCTS) model compensates for many of the deficiencies seen in monolayer cultures. Spheroids on the scale of 200-500 μm develop chemical gradients of oxygen, nutrients, and catabolites, while having morphological and functional features similar to tumors. Therefore, assays utilizing the MCTS model allow for the assessment of drug penetration and are more predictive of in vivo success compared with monolayer cultures. MCTS assays are a tumor model system of intermediate complexity between standard monolayer and tumors in vivo.
Pancreatic tumor cells (Panc Tu-1, BxPC-3, Mia Paca-2, ASPC1) and pancreatic primary tumor cells (Bo80) were seeded in ultra-low adhesion plates in special stem cell media.
Pancreatic tumor cells (ASPC1, Mia Paca-2, Panc Tul, BxPC-3) and pancreatic primary tumor cells (Bo80) were raised in monolayer culture before seeding in ultra low adhesion plates under conditions of special stem cell media to form multicellular spheroids and passed through a cell strainer to exclude aggregates. […]

PancTu I tumor = assay: PancTu I subcutaneous tumor model in nude mice; format: in vivo, nude mice (NMRI-Foxn1 nu/nu); conditions: 500 mg/kg i.p. on alternating days

## O=S1(=O)CCOCN1 [compound 2250, Tetrahydro1,4,5-oxathiazin-4-dioxide]
[1]
  relative tumor volume compared to control: further reduced relative tumor volume compared to control
[2]
  activity in punch plate tests: highly active
MiaPaca2 tumor
  decrease of MiaPaca2 tumor volume compared to control: over 3 fold
Escherichia coli
  antibacterial activity: very high level of antibacterial activity
[3]; 4 μg/ml
  OD (absorbance at 540 nm; high values = high cell viability): 1.477
[3]; 8 μg/ml
  OD (absorbance at 540 nm; high values = high cell viability): 1.527
[3]; 15.5 μg/ml
  OD (absorbance at 540 nm; high values = high cell viability): 1.482
[3]; 31 μg/ml
  OD (absorbance at 540 nm; high values = high cell viability): 1.482
[3]; 62.5 μg/ml
  OD (absorbance at 540 nm; high values = high cell viability): 0.372
[3]; 250 μg/ml
  OD (absorbance at 540 nm; high values = high cell viability): 0.120
[3]; 500 μg/ml
  OD (absorbance at 540 nm; high values = high cell viability): 0.141
[3]; 1000 μg/ml
  OD (absorbance at 540 nm; high values = high cell viability): 0.189
[3]; read-out: EC50 (concentration inducing 50% cell death), LN-229 cells, 24 h incubation
  EC50: 45 µg/mL (≈ 328 µM)
[3]; read-out: half-maximal concentration of inducing cell death EC50
  EC50: 50 µg/mL (≈ 365 µM)
[4]
  solubility in water: very soluble in water
[4]; no PVP
  concentration of isotonic solution: 3.2%
Staphylococcus aureus; Staph. aureus
  antibacterial activity relative to Taurultam: about double as high as Taurultam
Staphylococcus aureus; Staphylococcus aureus
  antibacterial activity: very high level of antibacterial activity
[5]
  toxic effect on the mice during the study: no toxic effect
[6]
  tumor volume compared to control: significantly reduce tumor volume compared to control
[7]; After 1 hour
  concentration in human fresh blood: 50.6 ppm
[7]; After 2 hours
  concentration in human fresh blood: 47.6 ppm
[7]; After 20 hours
  concentration in human fresh blood: 38.6-39.0 ppm
[7]; Baseline Value
  concentration in human fresh blood: 49.0 ppm
[7]; human fresh blood, in vitro
  half-life at 49 ppm: > 24 h
[8]
  IC50: 750 to 1000 µM
[9]
  IC50: 300 µM
[10]
  effectiveness in treating cancers in patients: effective in treating such cancers
  safety for use in patients: safe for use in patients
[11]
  effect on pancreatic stem cell like multicellular spheroid cultures: antineoplastic effect
PancTu I tumor
  decrease of PancTu I tumor volume compared to control: about 2 fold
